Source: patent US10071973B2, “Crystalline isoxazole hydroxamic acid compounds” (priority 2016, dated 2018)
“Also recorded” adds a separate entry of the source. Like-named read-outs stand apart in the source and are kept apart here.

Columns and labels:
[1] = Hygroscopicity: mass change with relative humidity / deliquescence; type: physicochemical; conditions: for hygroscopicity / deliquescence (in words): exposed to air or humidity, amorphous: humidity of about 80% or higher
Procedure: FIG. 4. Isotherm Plots showing reversible mass changes of Crystalline Compound A over a Relative Humidity range of 0-90%.
Primary soller slit 2.5°; secondary soller slit 2.5°; divergent slit 0.6 mm; antiscatter slit 5.0 mm.

[2] = Stability (colour) of the solid on standing at ambient temperature; type: physicochemical; conditions: ambient / room temperature, over time
From the text: This material required special handling and was not considered suitable for development as a pharmaceutical.

E. coli ATCC 25922 = assay: MIC by broth microdilution (CLSI), E. coli, alone and with rifampicin; type: cell-based; conditions: Escherichia coli
Procedure: (§1) Bacterial isolates were cultivated from −70° C. frozen stocks by two consecutive overnight passages at 35° C. in ambient air on 5% blood agar (Remel, Lenexa, Kans.). Quality control strain, P. aeruginosa ATCC 27853, A. baumannii ATCC19606 and E. coli ATCC 25922 are from the American Type Culture Collection (ATCC; Rockville, Md.) and PAO1 was received from Dr. K. Poole.
(§2) Minimal Inhibitory Concentrations (MICs) were determined by the broth microdilution method in accordance with Clinical and Laboratories Institute (CLSI) guidelines (CLSI M100-S25, Performance Standards for Antimicrobial Susceptibility Testing; Twenty-fifth Informational Supplement). In brief, fresh bacterial overnight cultures were resuspended in sterile saline, adjusted to a 0.5 McFarland turbidity standard and then diluted 2000-fold in cation adjusted Mueller-Hinton Broth II (MHB; Remel BBL) to yield a final inoculum of approximately 5×10^5 colony-forming units (CFU)/mL. […] Following incubation, assay plates were read in a microtiter plate reader at 600 nm and visually inspected to confirm the MIC endpoint well with the OD value. The lowest concentration of the compound that prevented visible growth was recorded as the MIC. Performance of the assay was monitored by testing ciprofloxacin against the laboratory quality control strain in accordance with guidelines of the CLSI.

P.A. PAO1 NB52019 = assay: MIC by broth microdilution (CLSI), P. aeruginosa; type: cell-based; conditions: Pseudomonas aeruginosa, 35° C., 20 hours
Procedure: as §1, §2

A. baumannii ATCC19606 = assay: MIC by broth microdilution (CLSI), A. baumannii, alone and with rifampicin; type: cell-based; conditions: Acinetobacter baumannii
Procedure: as §1, §2

| mass increase (hygroscopicity) ([1]; RH=90%) | hygroscopicity / deliquescence (in words) [1] | mass increase (hygroscopicity) ([1]; relative humidity (RH) of 80%) | MIC (E. coli ATCC 25922; ATCC 25922 / ATCC 29522, in presence of 2 μg/ml rifampicin, read-out: E.C. ATCC 29522 (+2 μg/ml RIF) MIC) | MIC (E. coli ATCC 25922; ATCC25922, broth microdilution, 35° C., 20 hours, read-out: E.C. ATCC 25922 MIC) | MIC (P.A. PAO1 NB52019) | MIC (A. baumannii ATCC19606; broth microdilution, 35° C., 20 hours, read-out: A.B. ATCC 19606 MIC) | MIC (A. baumannii ATCC19606; in presence of 2 μg/ml rifampicin, read-out: A.B. ATCC 19606 (+2 μg/ml RIF) MIC) | SMILES | colour stability on standing [2] |
| --- | --- | --- | --- | --- | --- | --- | --- | --- | --- |
| 3.2% | low hygroscopicity | 1.3% | – | – | – | – | – | C[C@@](CCc1cc(C#CC2CC2)on1)(C(=O)NO)S(C)(=O)=O [crystalline Compound (A), (R)-4-(5-(cyclopropylethynyl)isoxazol-3-yl)-N-hydroxy-2-methyl-2-(methylsulfonyl)butanamide] | – |
| – | significantly deliquescent | – | – | – | – | – | – | C[C@@](CCc1cc(C#CC2CC2)on1)(C(=O)NO)S(C)(=O)=O [amorphous Compound (A), (R)-4-(5-(cyclopropylethynyl)isoxazol-3-yl)-N-hydroxy-2-methyl-2-(methylsulfonyl)butanamide] | developed a brownish color over time; also recorded: tended to darken on standing at ambient temperature |
| – | – | – | ≤ 0.06 µg/mL | 2 µg/mL | 0.25 µg/mL | > 64 µg/mL | 0.125 µg/mL | C[C@@](CCc1cc(C#CC2CC2)on1)(C(=O)NO)S(C)(=O)=O [A, (R)-4-(5-(cyclopropylethynyl)isoxazol-3-yl)-N-hydroxy-2-methyl-2-(methylsulfonyl)butanamide] | – |
